According to ChEMBL document CHEMBL1201862, “PubChem BioAssay data set” (2004):
The source made the active and inactive calls.

What was measured:
[1] = target: SUMO-activating enzyme (Homo sapiens, UniProt Q9UBT2); assay: SUMOylation inhibitor hit validation, confirmation, SUMOylation inhibitor project, biochemical, AlphaScreen (AID 2018); format: functional
[2] = target: Trypsin (Sus scrofa, UniProt P00761); assay: porcine trypsin inhibitors, dose response, selectivity assay for Rce1 protease inhibitor project, biochemical, quenched peptide fluorescence, cherry-pick (AID 488789)
[3] = target: T1, CAAX prenyl protease 2 (Saccharomyces cerevisiae S288c, UniProt Q03530); format: biochemical
T1 sequence (Q03530 whole entry): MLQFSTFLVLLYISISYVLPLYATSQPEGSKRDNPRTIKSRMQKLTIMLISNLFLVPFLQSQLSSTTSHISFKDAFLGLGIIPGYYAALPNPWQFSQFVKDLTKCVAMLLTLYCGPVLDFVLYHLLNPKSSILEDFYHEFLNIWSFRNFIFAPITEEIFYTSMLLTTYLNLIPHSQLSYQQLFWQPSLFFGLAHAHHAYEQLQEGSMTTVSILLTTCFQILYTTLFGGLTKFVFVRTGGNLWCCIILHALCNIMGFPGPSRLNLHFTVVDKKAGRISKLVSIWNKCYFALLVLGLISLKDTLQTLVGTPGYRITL

[4] = target: T2, Short transient receptor potential channel 4 (Mus musculus, UniProt Q9QUQ5); assay: TRPC4 positive allosteric modulators, dose response, cell-based, HEK293 TRPC4/mu-opioid, Fluo-4 calcium, EC20 DAMGO (AID 434941); format: functional
T2 sequence (Q9QUQ5 whole entry): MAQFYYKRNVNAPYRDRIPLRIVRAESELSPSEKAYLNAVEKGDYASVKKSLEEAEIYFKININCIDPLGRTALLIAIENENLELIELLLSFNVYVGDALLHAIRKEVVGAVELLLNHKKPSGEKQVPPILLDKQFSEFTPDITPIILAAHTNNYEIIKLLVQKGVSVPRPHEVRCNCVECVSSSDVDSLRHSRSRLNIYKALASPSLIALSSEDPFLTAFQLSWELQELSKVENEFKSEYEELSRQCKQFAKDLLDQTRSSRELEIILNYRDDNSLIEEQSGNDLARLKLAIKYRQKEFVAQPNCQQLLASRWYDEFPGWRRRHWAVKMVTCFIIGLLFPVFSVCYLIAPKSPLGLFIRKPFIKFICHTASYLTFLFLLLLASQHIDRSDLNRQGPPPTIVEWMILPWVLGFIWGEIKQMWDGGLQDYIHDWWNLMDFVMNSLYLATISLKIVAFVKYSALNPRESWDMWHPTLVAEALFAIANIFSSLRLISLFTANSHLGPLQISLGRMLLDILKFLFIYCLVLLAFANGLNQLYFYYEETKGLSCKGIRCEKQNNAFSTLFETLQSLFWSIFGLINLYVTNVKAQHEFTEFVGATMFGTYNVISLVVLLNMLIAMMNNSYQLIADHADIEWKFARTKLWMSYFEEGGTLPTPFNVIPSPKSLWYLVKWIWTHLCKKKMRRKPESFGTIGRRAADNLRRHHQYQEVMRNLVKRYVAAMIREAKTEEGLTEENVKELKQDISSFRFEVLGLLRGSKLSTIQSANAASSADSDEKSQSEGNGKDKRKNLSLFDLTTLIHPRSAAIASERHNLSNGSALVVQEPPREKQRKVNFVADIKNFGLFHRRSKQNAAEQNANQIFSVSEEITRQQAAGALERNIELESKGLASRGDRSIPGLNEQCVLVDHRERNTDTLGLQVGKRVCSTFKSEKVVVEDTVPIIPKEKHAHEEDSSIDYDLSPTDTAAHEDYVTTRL

[5] = target: T2, Short transient receptor potential channel 4; assay: mouse TRPC4 channel activators, dose response, cell-based, HEK293 TRPC4/mu-opioid, Fluo-4 calcium (AID 434937); format: functional
[6] = target: T3, Cytochrome P450 1A2 (Homo sapiens, UniProt P05177);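 also: PubChem cytochrome P450 panel assay, CYP1A2 panel member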
T3 sequence (P05177 whole entry): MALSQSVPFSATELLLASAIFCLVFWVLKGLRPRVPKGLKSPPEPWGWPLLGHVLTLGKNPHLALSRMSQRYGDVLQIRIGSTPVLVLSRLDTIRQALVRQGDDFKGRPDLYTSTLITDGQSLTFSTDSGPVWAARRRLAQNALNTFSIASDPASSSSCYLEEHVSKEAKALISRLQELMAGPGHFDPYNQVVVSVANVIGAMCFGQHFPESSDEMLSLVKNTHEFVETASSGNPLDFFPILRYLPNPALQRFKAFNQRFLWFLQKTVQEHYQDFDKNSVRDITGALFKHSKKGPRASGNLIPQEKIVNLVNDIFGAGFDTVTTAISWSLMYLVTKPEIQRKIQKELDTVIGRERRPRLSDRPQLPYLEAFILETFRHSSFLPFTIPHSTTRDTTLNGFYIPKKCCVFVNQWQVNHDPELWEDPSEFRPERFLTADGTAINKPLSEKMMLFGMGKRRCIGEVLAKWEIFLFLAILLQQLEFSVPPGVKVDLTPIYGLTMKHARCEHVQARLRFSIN

[7] = target: Cytochrome P450 2C9 (Homo sapiens, UniProt P11712)
[8] = target: Cytochrome P450 2C19 (Homo sapiens, UniProt P33261); assay: Cytochrome panel assay with activity outcomes. Panel member name: p450-cyp2c19 Compounds with AC50 equal or less than 10 uM are considered active; format: functional; details: read-out: AC50
[9] = target: DNA damage-inducible transcript 3 protein (Mus musculus, UniProt P35639); format: functional, Cricetulus griseus
[10] = C. albicans growth with fluconazole, confirmation, fluorescence, retest (AID 2467); format: functional, cell-based
[11] = system: Vero; assay: cells; format: functional; details: Chlorocebus sabaeus
[12] = NIH-3T3 fibroblast cytotoxicity, dose response, cytotoxicity control, cell-based, fluorescence, Alamar Blue, secondary assay (AID 2327); format: functional;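 also: NIH-3T3 mouse fibroblasts cultured with fluconazole at 8 µg/mL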
[13] = system: INS1; assay: beta cell apoptosis inhibitors, cytokine rescue, dose response, luminescence, retest (AID 449756); format: functional, cell-based; details: Rattus norvegicus;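 also: cell death triggered by IL-1 beta plus TNF-alpha plus IFN-gamma mixture; protective hits raise ATP signal compared with cytokine alone wells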
[14] = target: Protein Wnt-3a (Mus musculus, UniProt P27467); assay: Wnt3a-driven reporter signaling inhibition, dose response, selectivity assay for Gli-SUFU antagonist project, Wnt-LIGHT cells, luminescence (AID 651570); format: functional; details: read-out: IC50_Mean;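 also: Wnt-LIGHT reporter cells stimulated with conditioned medium from Wnt3a-producing cells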
[15] = target: T4, Microphthalmia-associated transcription factor (Homo sapiens, UniProt O75030); assay: TRPM1 promoter luciferase signal decrease, dose response, MITF inhibitor project, cell-based, SK-MEL-5, cherry-picked, set 3 (AID 493073); format: functional
T4 sequence (O75030 whole entry): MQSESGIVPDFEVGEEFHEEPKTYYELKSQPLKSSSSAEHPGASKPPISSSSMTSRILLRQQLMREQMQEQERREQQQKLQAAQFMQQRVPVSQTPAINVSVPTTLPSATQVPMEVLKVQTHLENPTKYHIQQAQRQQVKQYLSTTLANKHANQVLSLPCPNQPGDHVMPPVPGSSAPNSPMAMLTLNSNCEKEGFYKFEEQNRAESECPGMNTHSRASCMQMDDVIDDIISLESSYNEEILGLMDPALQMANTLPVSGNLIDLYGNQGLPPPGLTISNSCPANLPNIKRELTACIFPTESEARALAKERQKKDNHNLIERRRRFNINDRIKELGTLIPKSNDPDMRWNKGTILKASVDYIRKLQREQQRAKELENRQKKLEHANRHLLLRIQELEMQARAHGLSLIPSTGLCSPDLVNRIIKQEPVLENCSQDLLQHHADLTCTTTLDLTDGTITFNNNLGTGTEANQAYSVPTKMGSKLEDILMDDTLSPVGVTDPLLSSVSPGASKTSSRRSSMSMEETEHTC

[16] = target: T5, Carboxy-terminal domain RNA polymerase II polypeptide A small phosphatase 1 (Homo sapiens, UniProt Q9GZU7); assay: inhibitors of CTDSP1, concentration-response testing, biochemical assay, absorbance-based, actives from ultra-high-throughput screening (AID 540297); format: functional
T5 sequence (Q9GZU7 whole entry): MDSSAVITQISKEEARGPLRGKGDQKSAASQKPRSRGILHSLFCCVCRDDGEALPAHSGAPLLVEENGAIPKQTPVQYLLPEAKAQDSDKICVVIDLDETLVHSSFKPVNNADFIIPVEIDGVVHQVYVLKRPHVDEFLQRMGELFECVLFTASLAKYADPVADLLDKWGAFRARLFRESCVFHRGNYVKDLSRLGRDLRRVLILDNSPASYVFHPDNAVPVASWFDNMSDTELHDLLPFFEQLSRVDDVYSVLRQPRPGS

[17] = target: DNA dC->dU-editing enzyme APOBEC-3G (Homo sapiens, UniProt Q9HC16); format: functional;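 also: Dose-response counterscreen measuring inhibition of APOBEC3G DNA deaminase activity, run while confirming APOBEC3A inhibitors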
[18] = target: DNA dC->dU-editing enzyme APOBEC-3A (Homo sapiens, UniProt P31941); assay: Dose Response confirmation of small molecule APOBEC3A DNA Deaminase Inhibitors via a fluorescence-based single-stranded DNA deaminase assay. [Related pubchem assays (depositor defined):AID493011, AID493024]; format: functional
[19] = target: T6, E3 ubiquitin-protein ligase XIAP (Homo sapiens, UniProt P98170); assay: XIAP antagonists, biochemical, IAP family, fluorescence polarization (AID 1018); format: functional
[20] = target: T6, E3 ubiquitin-protein ligase XIAP; assay: Counter Screen using XIAP-Bir3 for Chemical Antagonists of Bir1/2 domains of IAP-family anti-apoptotic proteins. [Related pubchem assays (depositor defined):AID1018, AID1449, AID1514, AID1638, AID1749, AID1750, AID488957, AID488963]
[21] = system: HEK293; assay: NOD1 signaling inhibitors, primary screen, cell-based, luminescence, uHTS (AID 1578); format: functional; details: Homo sapiens
[22] = system: HEK293; assay: cells; format: functional, cell-based; details: Homo sapiens
[23] = system: HEK293; assay: NOD2 signaling inhibitors in MDP-stimulated cells, cell-based, uHTS, luminescence (AID 2001); format: functional; details: Homo sapiens
[24] = system: HEK293; assay: cells; format: functional, cell-based; details: Homo sapiens; remark: listed apart in the source
[25] = inhibitors of intracellular T. cruzi replication, confirmation, NIH3T3 host cells, beta-gal luminescence (AID 2044); format: functional, cell-based;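 also: intracellular parasites grown in NIH/3T3 mouse fibroblasts as host cells; luminescent beta-galactosidase reporter signal from transgenic T. cruzi replicating inside host cells; inhibitors lower the luminescence signal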
[26] = cytotoxicity toward NIH3T3 fibroblasts, dose response, counter-screen, cell-based, ATP luminescence, mouse fibroblasts (AID 2010); format: functional;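 also: cells exposed to compound for about 90 hours before reading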

SUMO-activating enzyme, sequence (Q9UBE0 whole entry): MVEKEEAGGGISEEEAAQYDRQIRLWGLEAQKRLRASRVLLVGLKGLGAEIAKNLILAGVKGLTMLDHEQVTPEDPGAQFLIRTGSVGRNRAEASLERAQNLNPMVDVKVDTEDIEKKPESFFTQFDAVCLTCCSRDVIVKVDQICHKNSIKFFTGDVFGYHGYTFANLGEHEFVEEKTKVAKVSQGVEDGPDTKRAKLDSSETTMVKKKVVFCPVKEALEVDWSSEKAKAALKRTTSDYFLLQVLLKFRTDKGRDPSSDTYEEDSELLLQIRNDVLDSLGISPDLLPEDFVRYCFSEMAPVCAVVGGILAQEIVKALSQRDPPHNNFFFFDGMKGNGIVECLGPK
SUMO-activating enzyme, sequence (Q9UBT2 whole entry): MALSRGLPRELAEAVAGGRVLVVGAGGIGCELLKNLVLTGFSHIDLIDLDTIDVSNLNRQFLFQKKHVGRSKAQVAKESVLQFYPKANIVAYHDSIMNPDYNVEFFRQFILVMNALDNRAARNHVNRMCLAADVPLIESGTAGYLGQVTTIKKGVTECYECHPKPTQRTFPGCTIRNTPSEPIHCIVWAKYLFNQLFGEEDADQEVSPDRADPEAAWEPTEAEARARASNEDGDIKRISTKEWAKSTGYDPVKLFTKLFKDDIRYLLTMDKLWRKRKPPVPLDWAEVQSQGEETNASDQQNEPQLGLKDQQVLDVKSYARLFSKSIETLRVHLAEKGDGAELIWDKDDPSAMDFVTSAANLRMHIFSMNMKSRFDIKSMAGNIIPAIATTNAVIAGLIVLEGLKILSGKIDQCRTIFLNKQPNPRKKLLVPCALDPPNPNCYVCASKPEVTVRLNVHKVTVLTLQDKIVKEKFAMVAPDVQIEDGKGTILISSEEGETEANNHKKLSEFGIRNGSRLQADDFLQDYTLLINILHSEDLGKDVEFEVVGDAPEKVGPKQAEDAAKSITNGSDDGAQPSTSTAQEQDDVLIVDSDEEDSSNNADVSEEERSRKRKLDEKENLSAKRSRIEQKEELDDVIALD
T6 sequence (P98170 whole entry): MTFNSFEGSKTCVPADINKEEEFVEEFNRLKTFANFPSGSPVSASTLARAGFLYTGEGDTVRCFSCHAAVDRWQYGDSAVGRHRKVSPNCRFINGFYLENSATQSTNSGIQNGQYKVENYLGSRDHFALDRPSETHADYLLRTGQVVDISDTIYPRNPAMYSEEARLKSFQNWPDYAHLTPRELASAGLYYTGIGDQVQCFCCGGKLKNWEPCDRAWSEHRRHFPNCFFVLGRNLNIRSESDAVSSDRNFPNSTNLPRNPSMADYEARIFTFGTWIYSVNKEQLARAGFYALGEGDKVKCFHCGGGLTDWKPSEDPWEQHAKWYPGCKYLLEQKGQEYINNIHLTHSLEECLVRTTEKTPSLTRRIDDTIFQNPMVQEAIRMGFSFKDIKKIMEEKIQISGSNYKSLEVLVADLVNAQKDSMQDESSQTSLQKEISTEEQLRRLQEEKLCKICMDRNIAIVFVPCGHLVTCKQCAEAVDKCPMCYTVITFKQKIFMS
DNA damage-inducible transcript 3 protein, sequence (P35639 whole entry): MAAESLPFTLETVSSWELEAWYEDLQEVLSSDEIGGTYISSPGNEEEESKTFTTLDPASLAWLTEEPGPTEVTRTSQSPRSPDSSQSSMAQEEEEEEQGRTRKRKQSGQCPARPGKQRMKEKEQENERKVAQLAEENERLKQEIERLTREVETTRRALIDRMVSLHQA
Cytochrome P450 2C9, sequence (P11712 whole entry): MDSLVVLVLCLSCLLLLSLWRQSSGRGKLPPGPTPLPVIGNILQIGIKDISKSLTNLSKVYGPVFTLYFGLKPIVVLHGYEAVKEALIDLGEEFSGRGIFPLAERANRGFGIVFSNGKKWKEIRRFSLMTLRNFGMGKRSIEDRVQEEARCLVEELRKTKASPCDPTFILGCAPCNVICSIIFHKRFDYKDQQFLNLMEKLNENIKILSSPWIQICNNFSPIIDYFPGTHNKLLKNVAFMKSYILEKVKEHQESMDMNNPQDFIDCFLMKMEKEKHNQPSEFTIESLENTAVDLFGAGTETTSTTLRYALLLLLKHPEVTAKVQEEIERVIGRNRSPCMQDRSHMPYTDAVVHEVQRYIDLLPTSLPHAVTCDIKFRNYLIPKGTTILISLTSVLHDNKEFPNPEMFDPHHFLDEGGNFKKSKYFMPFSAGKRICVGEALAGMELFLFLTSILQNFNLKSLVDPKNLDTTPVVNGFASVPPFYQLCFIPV
DNA dC->dU-editing enzyme APOBEC-3A, sequence (P31941 whole entry): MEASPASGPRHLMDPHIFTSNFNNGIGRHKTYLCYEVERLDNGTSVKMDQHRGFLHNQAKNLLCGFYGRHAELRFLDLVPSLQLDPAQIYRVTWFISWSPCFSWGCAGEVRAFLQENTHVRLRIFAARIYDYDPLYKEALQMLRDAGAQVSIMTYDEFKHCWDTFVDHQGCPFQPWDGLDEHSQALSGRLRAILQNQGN
DNA dC->dU-editing enzyme APOBEC-3G, sequence (Q9HC16 whole entry): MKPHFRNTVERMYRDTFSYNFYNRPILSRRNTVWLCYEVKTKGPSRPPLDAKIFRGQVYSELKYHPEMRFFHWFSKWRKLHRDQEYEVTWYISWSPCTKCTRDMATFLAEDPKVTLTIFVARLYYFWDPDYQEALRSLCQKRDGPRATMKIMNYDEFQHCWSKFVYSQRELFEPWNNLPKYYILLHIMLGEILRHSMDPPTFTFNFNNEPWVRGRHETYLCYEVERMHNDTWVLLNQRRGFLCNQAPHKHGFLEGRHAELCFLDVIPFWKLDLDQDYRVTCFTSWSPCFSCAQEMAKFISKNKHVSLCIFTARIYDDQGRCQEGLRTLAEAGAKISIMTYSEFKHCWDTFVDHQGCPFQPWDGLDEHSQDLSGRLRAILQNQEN
Protein Wnt-3a, sequence (P27467 whole entry): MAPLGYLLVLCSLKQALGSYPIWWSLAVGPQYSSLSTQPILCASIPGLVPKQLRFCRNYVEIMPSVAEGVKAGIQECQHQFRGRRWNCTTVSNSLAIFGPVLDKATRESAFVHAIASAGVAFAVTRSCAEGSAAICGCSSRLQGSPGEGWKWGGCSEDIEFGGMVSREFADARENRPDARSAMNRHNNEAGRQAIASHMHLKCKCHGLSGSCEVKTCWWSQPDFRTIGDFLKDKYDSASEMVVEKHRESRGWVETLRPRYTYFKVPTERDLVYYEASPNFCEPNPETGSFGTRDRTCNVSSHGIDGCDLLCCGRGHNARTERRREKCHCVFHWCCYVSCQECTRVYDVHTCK
Cytochrome P450 2C19, sequence (P33261 whole entry): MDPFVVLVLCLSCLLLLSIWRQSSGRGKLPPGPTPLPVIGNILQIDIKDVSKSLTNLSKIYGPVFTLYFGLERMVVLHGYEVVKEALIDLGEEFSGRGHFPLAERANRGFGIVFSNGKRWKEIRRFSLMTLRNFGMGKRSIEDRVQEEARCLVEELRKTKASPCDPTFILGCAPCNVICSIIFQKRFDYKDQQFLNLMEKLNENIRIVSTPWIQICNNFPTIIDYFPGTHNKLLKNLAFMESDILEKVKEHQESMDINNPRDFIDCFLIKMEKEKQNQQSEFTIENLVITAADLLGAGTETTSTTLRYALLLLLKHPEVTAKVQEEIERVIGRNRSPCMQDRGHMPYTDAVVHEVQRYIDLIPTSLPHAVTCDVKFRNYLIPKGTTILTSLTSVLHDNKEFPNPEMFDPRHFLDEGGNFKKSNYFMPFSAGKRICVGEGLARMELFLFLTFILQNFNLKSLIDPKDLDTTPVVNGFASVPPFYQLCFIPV
Trypsin, sequence (P00761 whole entry): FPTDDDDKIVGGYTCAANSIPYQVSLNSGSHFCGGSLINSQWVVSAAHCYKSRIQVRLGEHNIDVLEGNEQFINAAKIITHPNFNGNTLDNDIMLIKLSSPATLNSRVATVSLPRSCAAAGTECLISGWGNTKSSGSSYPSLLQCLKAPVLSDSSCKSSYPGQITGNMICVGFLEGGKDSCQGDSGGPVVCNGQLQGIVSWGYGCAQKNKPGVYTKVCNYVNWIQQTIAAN

SMILES: Nc1c(C(=O)NCc2ccco2)c2nc3ccccc3nc2n1CCc1ccc(F)cc1
- IC50 [1]: 34.7 µM (active)

SMILES: CCc1cc(=O)oc2c3c(cc(OCC(=O)NCCCCCC(=O)O)c12)OC(C)(C)CC3
- AC50 [2]: 4.32 µM (active)
- IC50 [1]: > 100 µM (inactive)
- AC50 [3]: 14 µM (active)

SMILES: Nc1cc(N2CCNCC2)ccc1[N+](=O)[O-]
- EC50 [4]: 0.19 µM (active)
- EC50 [5]: 1.19 µM (active)

SMILES: C[C@@]12CC[C@@H]3c4ccc(O)cc4CC[C@H]3[C@H]1CC[C@H]2O
- AC50 [6]: 5.01 µM (inconclusive)
- AC50 [7]: inconclusive

SMILES: O=C(NNC(=O)c1sc2ccccc2c1Cl)Nc1ccc(Cl)cc1
- IC50 [1]: 25.8 µM (active)
- AC50 [8]: 3.55 µM (inconclusive)
- AC50 [7]: inconclusive

SMILES: O=C(NNC(=O)c1cccc2ccccc12)c1ccc(-c2ccccc2)cc1
- Absolute IC50 (CHOP) [9]: 10 µM

SMILES: CCOc1ccc(N2C(=O)/C(=C\NNc3nc(C)cc(C)n3)c3ccccc3C2=O)cc1
- EC50 [10]: > 38 µM (not active)
- CC50 [11]: 10.3 µM (active)
- EC50 [12]: 47.9 µM (active)
- AC50 [13]: 2.24 µM (active)
- IC50 [14]: 11.2 µM (active)
- AC50 [15]: 3.48 µM (active)

SMILES: CCOc1ccc(OCCCC(=O)N2CCN(S(=O)(=O)c3ccc(Cl)cc3)CC2)cc1
- IC50 [16]: 6.6 µM (active)
- IC50 [17]: 2.23 µM (active)
- IC50 [18]: 2.04 µM (active)

SMILES: Nc1c(NC2CCCCC2)c2ccccc2oc1=O
- IC50 [19]: > 100 µM (not active)
- IC50 [20]: > 100 µM (inactive)

SMILES: CCN(CC)c1ccc(S(=O)(=O)N2CCOCC2)cc1NC(=O)CSc1cccc[n+]1[O-]
- IC50 [19]: > 100 µM (not active)
- IC50 [20]: > 100 µM (inactive)

SMILES: Cc1cccc(NC(=O)c2cccc(NS(=O)(=O)c3ccc(Cl)cc3)c2)c1
- EC50 [21]: 9.39 µM (active)
- IC50 [22]: > 20 µM (inactive)
- IC50 [23]: 12.6 µM (inactive)
- IC50 [24]: > 20 µM (inactive)

SMILES: Cc1ccc(/C=C2\SC(=S)N(CCC(=O)NNS(=O)(=O)c3ccc(C)cc3)C2=O)cc1
- IC50 [19]: > 100 µM (not active)
- IC50 [20]: > 100 µM (inactive)

SMILES: C[C@@H]1CC2(CCCC[N+]2(C)C)C[C@H]1C
- IC50 [17]: 3.7 µM (active)
- IC50 [18]: 1.61 µM (active)

SMILES: COc1ccccc1-c1nnc(NC(=O)c2ccc(S(=O)(=O)N(C)Cc3ccccc3)cc2)o1
- Absolute IC50 (CHOP) [9]: 10 µM

SMILES: Cc1ccc(S(=O)(=O)N2CCC(N3CCN(C)CC3)CC2)cc1Cl
- EC50 [4]: 0.94 µM (active)

SMILES: O=[N+]([O-])c1ccc(/C=N/Nc2nc(N3CCCCC3)nc(N3CCCCC3)n2)o1
- EC50 [4]: 5.96 µM (active)
- EC50 [25]: 0.225 µM (active)
- EC50 [26]: > 60 µM (inconclusive)
